Laboratory results as given in patent US20180289713A1, “COMPOUNDS FOR TREATING AMYOTROPHIC LATERAL SCLEROSIS” (Hoffmann-La Roche Inc., priority 2015, published 2018).

Tests used:
[1] = tested on: full length SMN2 minigene mRNA (HEK293H cell line stably transfected with SMN2-A minigene); experiment: SMN2 minigene mRNA splicing RT-qPCR assay in cultured cells; assay type: cell-based; settings: HEK293-H, concentration raising full length SMN2 minigene mRNA 1.5-fold vs vehicle, 24 hours, 7-point curve, read-out: EC1.5x minigene
Excerpt: The term “EC1.5× concentration for production of full length SMN2 minigene mRNA” (or “EC1.5× minigene”) is defined as that concentration of test compound that is effective in increasing the amount of full length SMN2 minigene mRNA to a level 1.5-fold greater relative to that in vehicle-treated cells.
The reverse transcription-quantitative PCR-based (RT-qPCR) assay is used to quantify the level of the full length SMN2 minigene (referred to herein by the term “FL SMN2mini”) mRNA containing SMN2 exon 7 in a HEK293H cell line stably transfected with said minigene and treated with a test compound. Materials used and respective sources are listed below in Table 1.
The SMN2-A minigene construct was prepared as described in International Patent Application WO2009/151546A1 page 145 paragraph [00400] to page 147 paragraph [00412](incl. FIG. 1 and FIG. 3 therein).
HEK293H cells stably transfected with the SMN2-A minigene construct (10,000 cells/well) are seeded in 200 μL of cell culture medium (DMEM plus 10% FBS, with 200 μg/mL hygromycin) in 96-well flat-bottom plates and the plate is immediately swirled to ensure proper dispersal of cells and the formation of an even monolayer of cells. Cells are allowed to attach for 6 hours. Test compounds are serially diluted 3.16-fold in 100% DMSO to generate a 7-point concentration curve. […]
Full length SMN2-A minigene and GAPDH mRNA are quantified using the primers and probes referenced in WO2014/209841A2 on page 80 in Table 1. […]
The increase in the abundance of the FL SMN2mini mRNA relative to that in cells treated with vehicle control is determined from real-time PCR data using a modified […] method (as described in Livak and Schmittgen, Methods, 2001, 25:402-8). The amplification efficiency E is calculated from the slope of the amplification curve for FL SMN2mini and GAPDH individually. The abundance of FL SMN2mini and GAPDH mRNA are then calculated as (1+E)^−Ct, where Ct is the threshold value for each amplicon. […]

patients with ALS = settings: cited from earlier work
[2] = tested on: SMN levels in SOD1-ALS iPS cell and TDP43-47A iPS cell line; settings: dose dependent; SOD1-ALS and TDP43-47A iPSC-derived ALS models; cited from earlier work

Row | Compound | EC (1.5-fold) [1] [µM] | other results
1 | Cc1cn2nc(-c3cc(=O)n4cc(N5CCNC6(CC6)C5)ccc4n3)ccc2n1 [Example 19, 7-(4,7-diazaspiro[2.5]octan-7-yl)-2-(2-methylimidazo[1,2-b]pyridazin-6-yl)pyrido[1,2-a]pyrimidin-4-one] | 0.0102 | –
2 | Cc1cn2nc(-c3cc(=O)n4cc(N5C[C@@H](C)N[C@@H](C)C5)cc(C)c4n3)cc(C)c2n1 [Example 26, 2-(2,8-dimethylimidazo[1,2-b]pyridazin-6-yl)-7-[(3R,5S)-3,5-dimethylpiperazin-1-yl]-9-methyl-pyrido[1,2-a]pyrimidin-4-one] | 0.327 | –
3 | Cc1cn2nc(-c3cc(=O)n4cc(N5CCNC(C)(C)C5)cc(C)c4n3)cc(C)c2n1 [Example 27, 2-(2,8-dimethylimidazo[1,2-b]pyridazin-6-yl)-7-(3,3-dimethylpiperazin-1-yl)-9-methyl-pyrido[1,2-a]pyrimidin-4-one] | 0.0399 | –
4 | Nc1nc2ccc(OC(F)(F)F)cc2s1 [Riluzole] | – | improvement of muscular strength (patients with ALS; ALS patients, some reports): does not appear to provide any improvement of muscular strength; extension of life (patients with ALS; at least some patients with ALS): three
5 | CCN1CCC(c2cc(C)c3nc(-c4cc5c(C)nc(C)cn5n4)cc(=O)n3c2)CC1 [SMN-C3] | – | increase of SMN levels [2]: up to 1.4 fold
